In PubChem BioAssay (NCI) one finds TGI data, which are given here for 19 compounds.

What is called TGI is the concentration at which net growth stops. Lower therefore signals greater sensitivity of the cells.

Among the test systems are SNB-78 CNS; DMS 114 small cell lung; HOP-18 NSCLC; KM20L2 colon; XF 498 CNS; LXFL 529 NSCLC; DMS 273 small cell lung; RXF-631 renal; DLD-1 colon.
Assay in all cases: DTP human tumour cell line panel, 48 h

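Briefly, cells in 96-well plates were exposed to five compound concentrations for 48 h, and endpoints were estimated by linear interpolation. Definition used: TGI = concentration required for complete inhibition of growth.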

On to `C/C(=N\N)C(CN(C)C)C(c1ccccc1)c1c(O)c2ccccc2oc1=O` (configuration not stated), for which the TGI is > 100 µM with SNB-78 CNS; > 100 µM in the experiment with DMS 114 small cell lung; > 100 µM with HOP-18 NSCLC; > 100 µM in the experiment with KM20L2 colon; 99.8 µM in the experiment with XF 498 CNS; > 100 µM in the experiment with LXFL 529 NSCLC. The concentration for total growth inhibition (TGI) in the experiment on DMS 273 small cell lung, in the experiment with RXF-631 renal and in the experiment with DLD-1 colon was > 100 µM each time.

As for `c1ccc(Nc2nnc(CSc3nc(-c4ccccc4)c(-c4ccccc4)[nH]3)s2)cc1`, the TGI was 79.9 µM with SNB-78 CNS; 81 µM with DMS 114 small cell lung; 48.5 µM in the experiment on KM20L2 colon; 53.3 µM in the experiment on LXFL 529 NSCLC; 43.4 µM with DMS 273 small cell lung; > 100 µM in the experiment with DLD-1 colon.

As for `O=P(O)(OCC(O)O)OCC(O)O`, the TGI in the experiment on SNB-78 CNS, with DMS 114 small cell lung, with HOP-18 NSCLC, with KM20L2 colon, in the experiment with XF 498 CNS and in the experiment with LXFL 529 NSCLC was > 100 µM in each case. The TGI in the experiment on DMS 273 small cell lung, in the experiment with RXF-631 renal and in the experiment on DLD-1 colon was > 100 µM in each case.

On to `Cc1c2ccncc2cc2c1sc1ccncc12`, for which the TGI with SNB-78 CNS is 40.9 µM; in the experiment with DMS 114 small cell lung, 21.6 µM; in the experiment with HOP-18 NSCLC, > 100 µM; in the experiment with KM20L2 colon, 25.7 µM; in the experiment with XF 498 CNS it was 29.8 µM; in the experiment on LXFL 529 NSCLC, 28.1 µM. Besides, the results for the TGI in the experiment with DMS 273 small cell lung, with RXF-631 renal and in the experiment with DLD-1 colon were 11.1 µM, > 40.9 µM and 15 µM, respectively.

As for `CCOC(C[C@H](O)[C@H]1COC(=S)S1)OCC`, the TGI in the experiment with DMS 114 small cell lung, in the experiment with KM20L2 colon, with XF 498 CNS, in the experiment on LXFL 529 NSCLC and in the experiment on DMS 273 small cell lung was > 100 µM in each case.

Turning to `O=S(=O)([O-])[O-].[Fe+2].c1ccc(/C(=N\Nc2ccccn2)c2ccccn2)cc1`, the TGI in the experiment with SNB-78 CNS worked out at 12.1 µM; with DMS 114 small cell lung, 3.73 µM; in the experiment on HOP-18 NSCLC, 14.6 µM; in the experiment on KM20L2 colon it was 12.4 µM; in the experiment on LXFL 529 NSCLC it was 12.3 µM; in the experiment on DMS 273 small cell lung, 11.5 µM. This compound also registered a TGI with DLD-1 colon of 11.2 µM.

On to `NS(=O)(=O)c1cc2c(cc1Cl)NC(C(=O)c1cc(=O)c3ccc(O)cc3o1)=NS2(=O)=O`, for which the TGI with SNB-78 CNS, with DMS 114 small cell lung, with HOP-18 NSCLC, with KM20L2 colon, in the experiment on XF 498 CNS and with DMS 273 small cell lung was > 100 µM each time. In addition, the TGI with DLD-1 colon is > 100 µM.

Regarding `CC(C)=CCCC1(C)C=Cc2c(c(C)cc3c2[nH]c2cc(O)ccc23)O1` (configuration not stated), the TGI with DMS 114 small cell lung, in the experiment with HOP-18 NSCLC, in the experiment with KM20L2 colon, with XF 498 CNS, in the experiment on LXFL 529 NSCLC and with DMS 273 small cell lung was > 25 µM in each case. Besides, the TGI in the experiment with DLD-1 colon was > 25 µM.

In the case of `COc1cc(/C=C\c2ccccn2)cc(OC)c1OC`, the TGI in the experiment on SNB-78 CNS, in the experiment on DMS 114 small cell lung, in the experiment on HOP-18 NSCLC, in the experiment with KM20L2 colon, in the experiment with XF 498 CNS and in the experiment with LXFL 529 NSCLC was > 100 µM in each case. Besides, the TGI in the experiment on DMS 273 small cell lung, in the experiment with RXF-631 renal and in the experiment on DLD-1 colon was > 100 µM throughout.

Regarding `CN(C(=O)C12C3C4C1C1C2C3C41I)C(C)(C)C` (configuration not stated), the TGI in the experiment with SNB-78 CNS, in the experiment with DMS 114 small cell lung, with HOP-18 NSCLC, with KM20L2 colon, in the experiment with XF 498 CNS and in the experiment on LXFL 529 NSCLC was > 100 µM in each case. Besides, the TGI in the experiment with DMS 273 small cell lung, with RXF-631 renal and in the experiment with DLD-1 colon was > 100 µM each time.

On to `CN(C)c1ccc(/C=C/C=C\C2=CC(=C\C=C/C=C3C=CC(=[N+](C)C)C=C3)/Sc3ccccc32)cc1`, for which the TGI is > 100 µM with SNB-78 CNS, 24.4 µM in the experiment with DMS 114 small cell lung, > 100 µM with KM20L2 colon and > 100 µM in the experiment with DMS 273 small cell lung.

With `NC(=S)NNC(=O)/C(=C/c1ccc(/C=C(\NC(=O)c2ccccc2)C(=O)NNC(N)=S)cc1)NC(=O)c1ccccc1`, the TGI in the experiment on SNB-78 CNS, in the experiment with DMS 114 small cell lung, in the experiment on HOP-18 NSCLC, in the experiment on KM20L2 colon, in the experiment with XF 498 CNS and with LXFL 529 NSCLC was > 100 µM throughout. The TGI in the experiment with DMS 273 small cell lung and in the experiment with DLD-1 colon was > 100 µM each time.

Regarding `CC(=O)OCC(=O)[C@@]1(O)CC[C@H]2[C@@H]3CCC4=CC(=O)[C@H](C)C[C@]4(C)[C@H]3[C@@H](O)C[C@@]21C`, the TGI in the experiment with SNB-78 CNS, in the experiment on DMS 114 small cell lung, with HOP-18 NSCLC, with KM20L2 colon, in the experiment on XF 498 CNS and in the experiment on DMS 273 small cell lung was > 100 µM in each case. Moreover, the TGI in the experiment with DLD-1 colon was > 100 µM.

Turning to `COc1cc(/C=C/C(=O)c2sc(-n3nc(-c4ccccc4)cc3-c3ccccc3)nc2C)ccc1O`, the TGI with SNB-78 CNS, in the experiment with DMS 114 small cell lung, in the experiment with HOP-18 NSCLC, with KM20L2 colon, in the experiment with DMS 273 small cell lung and in the experiment with RXF-631 renal was > 100 µM in each case. The TGI with DLD-1 colon was > 100 µM.

Consider `O=C(NO)c1ccc([N+](=O)[O-])cc1`, for which the TGI is > 100 µM in the experiment on DMS 114 small cell lung; > 100 µM with KM20L2 colon; > 100 µM in the experiment with XF 498 CNS; 83.8 µM with LXFL 529 NSCLC; > 100 µM in the experiment on DMS 273 small cell lung; > 100 µM in the experiment on DLD-1 colon.

For the compound `COc1cc(NC(C)=O)c2[nH]c3c(C)cc(NC(C)=O)c(C)c3c2c1`, the TGI in the experiment on DMS 114 small cell lung, with HOP-18 NSCLC, in the experiment on KM20L2 colon, with XF 498 CNS, in the experiment with LXFL 529 NSCLC and with DMS 273 small cell lung was > 100 µM throughout. Besides, the TGI in the experiment on DLD-1 colon was > 100 µM.

In the case of `COc1ccc(Br)c2c1CC(C(=O)O)CC2` (configuration not stated), the TGI in the experiment with SNB-78 CNS, in the experiment with DMS 114 small cell lung, with HOP-18 NSCLC, with KM20L2 colon, in the experiment with XF 498 CNS and in the experiment with LXFL 529 NSCLC was > 100 µM in each case. Besides, the TGI in the experiment on DMS 273 small cell lung and with DLD-1 colon was > 100 µM throughout.

Take `CCOC(=O)CSc1ccnc(=O)[nH]1`: the TGI with SNB-78 CNS, in the experiment with DMS 114 small cell lung, in the experiment on KM20L2 colon, in the experiment with XF 498 CNS, in the experiment with LXFL 529 NSCLC and in the experiment on DMS 273 small cell lung was > 100 µM each time.

For `CCCCCCn1c(SCC)c2ccccc2c1-c1nc(F)nc(F)n1`, the TGI with SNB-78 CNS, in the experiment with DMS 114 small cell lung, in the experiment with KM20L2 colon, in the experiment on XF 498 CNS, in the experiment on LXFL 529 NSCLC and with DMS 273 small cell lung was > 100 µM throughout. In addition, the TGI in the experiment with DLD-1 colon is > 100 µM.
